Target: T1, human GIPR (Homo sapiens, UniProt P48546)
T1 construct: host or cells: CHO-K1
T1 sequence (P48546 22-466): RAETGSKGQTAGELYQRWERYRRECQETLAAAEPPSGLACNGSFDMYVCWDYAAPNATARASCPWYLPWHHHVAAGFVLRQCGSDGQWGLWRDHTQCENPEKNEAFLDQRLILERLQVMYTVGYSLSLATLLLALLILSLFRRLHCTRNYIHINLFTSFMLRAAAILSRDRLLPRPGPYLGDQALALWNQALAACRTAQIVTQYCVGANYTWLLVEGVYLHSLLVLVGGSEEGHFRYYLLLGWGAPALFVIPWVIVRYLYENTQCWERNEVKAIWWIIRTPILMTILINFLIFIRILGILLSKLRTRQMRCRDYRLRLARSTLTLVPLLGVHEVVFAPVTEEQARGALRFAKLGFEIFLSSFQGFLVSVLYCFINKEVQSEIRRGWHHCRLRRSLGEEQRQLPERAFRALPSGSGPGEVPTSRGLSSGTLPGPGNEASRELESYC
Experiment: cAMP production in CHO-K1 cells expressing human GIPR (LANCE cAMP assay)
Assay type: cell-based
Settings: for Emax: CHO-K1, read-out: % activation of cAMP (maximal stimulation)
Description: CHO—K1 cells expressing human GIPR were obtained from DiscoverX Corporation (Fremont, Calif.). The cells were cultured in Ham's F-12 nutrient media supplemented with 10% foetal bovine serum, 800 μg/ml geneticin, 300 μg/ml hydromycin, 2 mM L-glutamine, and Penicillin-streptomycin (100 units, 100 μg) at 37° C. in a 5% CO2 incubator. The cells were harvested at 90% confluence.
The cells were suspended in Ham's F-12 nutrient media to a concentration of 200,000 cells/ml. The cells were then plated in a 384 well plate at with […] of the suspension added per well. The cells were incubated overnight at 37° C. in a 5% CO2 incubator.
The activity of the compounds was determined by stimulating the CHO—K1 cells with the test compound, and measuring the levels of cAMP produced. The activity of the compounds was compared to the activity of native GIP, as GIP stimulates cAMP production. 6 μl of the test compound in stimulation buffer (990 ml Hank's Balanced Salt solution (HBSS) (1×) (Invitrogen Corp #14025-092), 10 ml Hepes buffer solution (1 mol·L) (Invitrogen Corp 15630-080), 1 g BSA (final 0.1%), and 1 ml IBMX 250 mM stock prepared fresh in DMSO (Sigma-Aldrich 15879)) were added to cells, followed by 6 μl of Alexa Fluor® 647-anti cAMP antibody (Perkin Elmer) in stimulation buffer. […] The well plate was centrifuged for 3 min at 300 rpm, and incubated at room temperature for 45 minutes. 12 μl of detection mixture (biotin cAMP and EUW8044 labeled streptavidin (Eu-SA) in cAMP Detection Buffer (Perkin Elmer)) was added and incubated for 60 min at room temperature.
The levels of cAMP produced were measured according to the detailed protocol outlined in the Perkin Elmer LANCE cAMP Assay Perkin Elmer Lance cAMP Kit manual. The activity of the compounds was compared to the activity of native GIP.
The plates are read on a TRF detection instrument, EnVision® (Perkin Elmer) (excitation at 340 nm and emission at 665 nm). The values of the cAMP signal are obtained from the standard cAMP curve and used to determine the amount of maximal stimulation, and EC50 for stimulating the cAMP signal.

CC[C@H](C)[C@H](NC(=O)[C@H](CO)NC(=O)[C@H](Cc1ccc(O)cc1)NC(=O)[C@H](CC(=O)O)NC(=O)[C@H](CO)NC(=O)[C@@H](NC(=O)[C@H](Cc1ccccc1)NC(=O)[C@@H](NC(=O)CNC(=O)[C@H](CCC(=O)O)NC(=O)[C@H](C)NC(=O)[C@@H](Cc1cc(F)c(F)c(F)c1)NC(C)=O)[C@@H](C)O)[C@@H](C)CC)C(=O)N[C@@H](C)C(=O)N[C@@H](CCSC)C(=O)N[C@@H](CC(=O)O)C(=O)N[C@@H](CCCCN)C(=O)N[C@H](C(=O)N[C@@H](Cc1c[nH]cn1)C(=O)N[C@@H](CCC(N)=O)C(=O)N[C@@H](CCC(N)=O)C(=O)N[C@@H](CC(=O)O)C(=O)N[C@@H](Cc1ccccc1)C(=O)N[C@H](C(=O)N[C@@H](CC(N)=O)C(=O)N[C@@H](Cc1c[nH]c2ccccc12)C(=O)N[C@@H](CC(C)C)C(=O)N[C@@H](CC(C)C)C(=O)N[C@@H](C)C(=O)N[C@@H](CCC(N)=O)C(=O)N[C@@H](CCCCN)C(N)=O)C(C)C)[C@@H](C)CC [Example 18]
EC50: 0.104 nM
Emax: 100%

CC[C@H](C)[C@H](NC(=O)[C@H](CO)NC(=O)[C@H](Cc1ccc(O)cc1)NC(=O)[C@H](CC(=O)O)NC(=O)[C@H](CO)NC(=O)[C@@H](NC(=O)[C@H](Cc1ccccc1)NC(=O)[C@@H](NC(=O)CNC(=O)[C@H](CCC(=O)O)NC(=O)[C@H](C)NC(=O)[C@@H](Cc1c[nH]c2ccccc12)NC(C)=O)[C@@H](C)O)[C@@H](C)CC)C(=O)N[C@@H](C)C(=O)N[C@@H](CCSC)C(=O)N[C@@H](CC(=O)O)C(=O)N[C@@H](CCCCN)C(=O)N[C@H](C(=O)N[C@@H](Cc1c[nH]cn1)C(=O)N[C@@H](CCC(N)=O)C(=O)N[C@@H](CCC(N)=O)C(=O)N[C@@H](CC(=O)O)C(=O)N[C@@H](Cc1ccccc1)C(=O)N[C@H](C(=O)N[C@@H](CC(N)=O)C(=O)N[C@@H](Cc1c[nH]c2ccccc12)C(=O)N[C@@H](CC(C)C)C(=O)N[C@@H](CC(C)C)C(=O)N[C@@H](C)C(=O)N[C@@H](CCC(N)=O)C(=O)N[C@@H](CCCCN)C(N)=O)C(C)C)[C@@H](C)CC [Example 10]
EC50: 0.1 nM
Emax: 102%

CC[C@H](C)[C@H](NC(=O)[C@H](CO)NC(=O)[C@H](Cc1ccc(O)cc1)NC(=O)[C@H](CC(=O)O)NC(=O)[C@H](CO)NC(=O)[C@@H](NC(=O)[C@H](Cc1ccccc1)NC(=O)[C@@H](NC(=O)CNC(=O)[C@H](CCC(=O)O)NC(=O)[C@H](C)NC(=O)[C@@H](Cc1cccnc1)NC(C)=O)[C@@H](C)O)[C@@H](C)CC)C(=O)N[C@@H](C)C(=O)N[C@@H](CCSC)C(=O)N[C@@H](CC(=O)O)C(=O)N[C@@H](CCCCN)C(=O)N[C@H](C(=O)N[C@@H](Cc1c[nH]cn1)C(=O)N[C@@H](CCC(N)=O)C(=O)N[C@@H](CCC(N)=O)C(=O)N[C@@H](CC(=O)O)C(=O)N[C@@H](Cc1ccccc1)C(=O)N[C@H](C(=O)N[C@@H](CC(N)=O)C(=O)N[C@@H](Cc1c[nH]c2ccccc12)C(=O)N[C@@H](CC(C)C)C(=O)N[C@@H](CC(C)C)C(=O)N[C@@H](C)C(=O)N[C@@H](CCC(N)=O)C(=O)N[C@@H](CCCCN)C(N)=O)C(C)C)[C@@H](C)CC [Example 11]
EC50: 0.08 nM
Emax: 102%

CC[C@H](C)[C@H](NC(=O)[C@H](CO)NC(=O)[C@H](Cc1ccc(O)cc1)NC(=O)[C@H](CC(=O)O)NC(=O)[C@H](CO)NC(=O)[C@@H](NC(=O)[C@H](Cc1ccccc1)NC(=O)[C@@H](NC(=O)CNC(=O)[C@H](CCC(=O)O)NC(=O)[C@H](C)NC(=O)[C@@H](Cc1cc(F)cc(F)c1)NC(C)=O)[C@@H](C)O)[C@@H](C)CC)C(=O)N[C@@H](C)C(=O)N[C@@H](CCSC)C(=O)N[C@@H](CC(=O)O)C(=O)N[C@@H](CCCCN)C(=O)N[C@H](C(=O)N[C@@H](Cc1c[nH]cn1)C(=O)N[C@@H](CCC(N)=O)C(=O)N[C@@H](CCC(N)=O)C(=O)N[C@@H](CC(=O)O)C(=O)N[C@@H](Cc1ccccc1)C(=O)N[C@H](C(=O)N[C@@H](CC(N)=O)C(=O)N[C@@H](Cc1c[nH]c2ccccc12)C(=O)N[C@@H](CC(C)C)C(=O)N[C@@H](CC(C)C)C(=O)N[C@@H](C)C(=O)N[C@@H](CCC(N)=O)C(=O)N[C@@H](CCCCN)C(N)=O)C(C)C)[C@@H](C)CC [Example 17]
EC50: 0.003 nM
Emax: 99.6%

CC[C@H](C)[C@H](NC(=O)[C@H](CO)NC(=O)[C@H](Cc1ccc(O)cc1)NC(=O)[C@H](CC(=O)O)NC(=O)[C@H](CO)NC(=O)[C@@H](NC(=O)[C@H](Cc1ccccc1)NC(=O)[C@@H](NC(=O)CNC(=O)[C@H](CCC(=O)O)NC(=O)[C@H](C)NC(=O)CCc1ccccc1)[C@@H](C)O)[C@@H](C)CC)C(=O)N[C@@H](C)C(=O)N[C@@H](CCSC)C(=O)N[C@@H](CC(=O)O)C(=O)N[C@@H](CCCCN)C(=O)N[C@H](C(=O)N[C@@H](Cc1c[nH]cn1)C(=O)N[C@@H](CCC(N)=O)C(=O)N[C@@H](CCC(N)=O)C(=O)N[C@@H](CC(=O)O)C(=O)N[C@@H](Cc1ccccc1)C(=O)N[C@H](C(=O)N[C@@H](CC(N)=O)C(=O)N[C@@H](Cc1c[nH]c2ccccc12)C(=O)N[C@@H](CC(C)C)C(=O)N[C@@H](CC(C)C)C(=O)N[C@@H](C)C(=O)N[C@@H](CCC(N)=O)C(=O)N[C@@H](CCCCN)C(N)=O)C(C)C)[C@@H](C)CC [Example 9]
EC50: 0.797 nM
Emax: 101%

From patent US9023986B2, “Glucose-dependent insulinotropic peptide analogs” (Hoffmann-La Roche Inc., priority 2010, dated 2015)
